Test results as given in ChEMBL document CHEMBL1129284, “N-methyl-D-aspartic acid receptor agonists: resolution, absolute stereochemistry, and pharmacology of the enantiomers of 2-amino-2-(3-hydroxy-5-methyl-4-isoxazolyl)acetic acid” (J Med Chem, 1996).

How the values were obtained:
[1] = target: Glutamate receptor ionotropic, AMPA (Rattus norvegicus, UniProt P19490+P19491+P19492+P19493); experiment: Inhibitory activity against Ionotropic glutamate receptor AMPA using [3H]AMPA as radioligand; assay type: protein-complex assay
Rattus norvegicus = species on record: Rattus norvegicus; experiment: Effective dose against rat cortical slice cells using Electrophysiological experiment.; assay type: functional; conditions: read-out: ED50 (the source's name)
[2] = target: Glutamate receptor ionotropic, kainate; experiment: Inhibitory activity against Ionotropic glutamate receptor kainate using [3H]-kainic acid as radioligand; assay type: protein-complex assay
Glutamate NMDA receptor = experiment: Inhibitory activity against N-methyl-D-aspartate glutamate receptor using [3H]CPP as radioligand; assay type: protein-complex assay

SMILES | IC50 [1] | EC50 (Rattus norvegicus) | IC50 [2] | IC50 (Glutamate NMDA receptor)
Cc1o[nH]c(=O)c1C(N)C(=O)O (stereo not given) | > 100 µM | 12 µM | > 100 µM | 
Cc1onc(O)c1[C@H](N)C(=O)O | > 100 µM | 75 µM | > 100 µM | 61 µM
NC(C(=O)O)c1cc(=O)[nH]o1 (stereo not given) | 76 µM | 3.8 µM | > 100 µM | > 100 µM
CN[C@H](CC(=O)O)C(=O)O [N-METHYL-D-ASPARTIC ACID (NMDA)] | > 100 µM | 15 µM | > 100 µM | 35 µM
Cc1onc(O)c1C[C@H](N)C(=O)O [(S)-AMPA] |  | 580 µM |  | 
Cc1onc(O)c1[C@@H](N)C(=O)O | 72 µM | 7.3 µM | > 100 µM | 3.7 µM
